Here are results for 13 molecules from PubChem BioAssay (NCI).

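Grown in 96-well plates, cells were treated for 48 hours with each compound at five concentrations. Insufficient inhibition: endpoint recorded as highest concentration tested. GI50 is the concentration that inhibits growth by half. TGI: concentration producing complete growth inhibition.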

Test systems include ACHN renal; HOP-62 NSCLC; IGROV1 ovarian; M14 melanoma; NCI-H226 lung; OVCAR-3 ovarian; SF-539 CNS; SN12C renal; SNB-75 CNS; UACC-62 melanoma.
Common to all, as to assay: DTP human tumour cell line panel, 48 h

In the case of `Cc1ccc(C)c(NC(=O)C(=O)CC(=O)C2CCOC2=O)c1` (stereo not given), the concentration for total growth inhibition (TGI) in the test on ACHN renal, with HOP-62 NSCLC, with IGROV1 ovarian, in the test on M14 melanoma, in the test on NCI-H226 lung and in the test on OVCAR-3 ovarian was over 100 µM each time. Moreover, the TGI with SF-539 CNS, with SN12C renal, in the test with SNB-75 CNS and in the test on UACC-62 melanoma was over 100 µM throughout.
Turning to `COc1ccc(C#Cc2ccccc2C#CCCCCO)cc1`, the GI50 was 21.7 µM with ACHN renal; 28.6 µM with HOP-62 NSCLC; 18.8 µM in the test on IGROV1 ovarian; 19.4 µM in the test with M14 melanoma; 17.3 µM with NCI-H226 lung; 20.4 µM with OVCAR-3 ovarian. Also, the GI50 with SF-539 CNS is 22.6 µM; with SN12C renal, 11 µM; with SNB-75 CNS, 18.4 µM; in the test with UACC-62 melanoma it was 15.9 µM. The TGI in the test with ACHN renal was determined as 45 µM; in the test with HOP-62 NSCLC, 45.4 µM; in the test on IGROV1 ovarian it was 34.1 µM; with M14 melanoma, 36.2 µM; with NCI-H226 lung it was 36.1 µM; in the test on OVCAR-3 ovarian it was 40.2 µM. Moreover, the TGI is 42.8 µM with SF-539 CNS, 23.7 µM in the test on SN12C renal, 38.9 µM in the test with SNB-75 CNS and 29.8 µM in the test with UACC-62 melanoma.
Turning to `COc1cc2c(cc1OC)C13CCN4C=C5CCOC6CC(=O)N2C1C6C5CC43` (stereo not given), the TGI in the test with ACHN renal, with HOP-62 NSCLC, in the test with IGROV1 ovarian, in the test with M14 melanoma, in the test on NCI-H226 lung and in the test with OVCAR-3 ovarian was over 100 µM each time. The TGI with SF-539 CNS, in the test with SN12C renal, in the test on SNB-75 CNS and with UACC-62 melanoma was over 100 µM in each case.
For the molecule `CCC[CH2][Sn]([CH2]CCC)([O]C(=O)c1c(F)cccc1F)[O]C(=O)c1c(F)cccc1F`, the GI50 was 0.763 µM in the test on ACHN renal; 2.22 µM in the test with HOP-62 NSCLC; 1.39 µM in the test on IGROV1 ovarian; 1.08 µM in the test with M14 melanoma; 1.89 µM in the test with NCI-H226 lung; 1.14 µM with OVCAR-3 ovarian. Besides, the GI50 is 1.02 µM with SF-539 CNS, 0.777 µM in the test with SN12C renal, 0.509 µM with SNB-75 CNS and 0.884 µM in the test on UACC-62 melanoma. Also, the TGI in the test on ACHN renal came out at 2.01 µM; in the test with HOP-62 NSCLC, 3.69 µM; in the test with IGROV1 ovarian, 3 µM; with M14 melanoma it was 2.26 µM; in the test with NCI-H226 lung it was 3.32 µM; with OVCAR-3 ovarian, 2.36 µM. Moreover, the TGI in the test with SF-539 CNS stood at 2.2 µM; in the test on SN12C renal, 2.03 µM; in the test on SNB-75 CNS, 1.82 µM; in the test on UACC-62 melanoma, 2.1 µM.
As to `CC1=CC2CC(C)=C(CC[C@]3(C)CC[C@H]([C@@H](C)C(=O)O)OO3)C(C)(C)C2CC1` (stereo not given in full), the total growth inhibition concentration (TGI) in the test with ACHN renal worked out at 2.64 µM; in the test on HOP-62 NSCLC it was 3.41 µM; in the test with IGROV1 ovarian, 0.453 µM; in the test with M14 melanoma, 2.67 µM; in the test with NCI-H226 lung, 3.45 µM; with OVCAR-3 ovarian, 2.99 µM. Further, the TGI in the test on SF-539 CNS was 2.68 µM; in the test with SN12C renal, 1.9 µM; with SNB-75 CNS, 2.29 µM; in the test on UACC-62 melanoma, 2.81 µM.
In the case of `CN(C)CCCOc1ccccc1NC1=C(Cl)C(=O)C(Nc2ccccc2OCCCN(C)C)=C(Cl)C1=O`, the GI50 in the test with ACHN renal is 0.941 µM; in the test on HOP-62 NSCLC, 1.66 µM; in the test with IGROV1 ovarian, 0.355 µM; in the test with M14 melanoma it was 1.6 µM; in the test on NCI-H226 lung, 1.98 µM; with OVCAR-3 ovarian, 0.172 µM. Further, the GI50 with SF-539 CNS was 1.66 µM; in the test on SN12C renal, 0.165 µM; in the test on SNB-75 CNS, 1.62 µM; with UACC-62 melanoma, 1.58 µM. Also, the TGI in the test with ACHN renal was 2.13 µM; in the test with HOP-62 NSCLC it was 3.31 µM; in the test with IGROV1 ovarian, 0.969 µM; with M14 melanoma, 3.16 µM; in the test on NCI-H226 lung it was 4.22 µM; in the test with OVCAR-3 ovarian it was 0.319 µM. Besides, the total growth inhibition concentration (TGI) in the test with SF-539 CNS worked out at 3.04 µM; in the test with SN12C renal, 0.319 µM; in the test on SNB-75 CNS, 3.02 µM; in the test with UACC-62 melanoma, 3.05 µM.
`COc1cc(CCc2cccnc2)cc(OC)c1OC`: the TGI with ACHN renal, in the test with HOP-62 NSCLC, with IGROV1 ovarian, in the test with M14 melanoma, in the test with NCI-H226 lung and with OVCAR-3 ovarian was over 100 µM throughout. The total growth inhibition concentration (TGI) in the test on SF-539 CNS, with SN12C renal, in the test with SNB-75 CNS and in the test on UACC-62 melanoma was over 100 µM throughout.
Consider `O=C(CC1=Nc2nnc(-c3nnc4n3C(=O)C(CC(=O)c3cccnc3)=N4)n2C1=O)c1cccnc1`, for which the TGI in the test with ACHN renal, in the test with HOP-62 NSCLC, with IGROV1 ovarian, with M14 melanoma, with NCI-H226 lung and with OVCAR-3 ovarian was over 100 µM in each case. Besides, the TGI in the test on SF-539 CNS, with SN12C renal, in the test on SNB-75 CNS and in the test with UACC-62 melanoma was over 100 µM each time.
In the case of `O=C1c2ccccc2C2(O)Nc3cc(O)ccc3C12O` (stereo not given), the TGI in the test on ACHN renal, in the test with HOP-62 NSCLC, with IGROV1 ovarian, in the test on M14 melanoma, in the test on NCI-H226 lung and in the test on OVCAR-3 ovarian was over 100 µM each time. In addition, the concentration for total growth inhibition (TGI) in the test on SF-539 CNS, in the test on SN12C renal, in the test on SNB-75 CNS and in the test on UACC-62 melanoma was over 100 µM each time.
With `CO[C@H](C(=O)[C@@H](O)[C@@H](C)O)[C@@H]1Cc2cc3cc(O[C@H]4C[C@@H](O[C@H]5C[C@@H](O)[C@H](O)C(C)O5)[C@H](O)C(C)O4)c(C)c(O)c3c(O)c2C(=O)[C@H]1O[C@H]1C[C@@H](O[C@H]2C[C@@H](O[C@H]3C[C@@H](OC)[C@H](O)C(C)O3)[C@@H](O)C(C)O2)C(O)(O)C(C)O1` (stereo not given in full), the 50% growth inhibitory concentration (GI50) with ACHN renal was 0.191 µM; with HOP-62 NSCLC, 0.0513 µM; in the test on IGROV1 ovarian, 0.116 µM; in the test with M14 melanoma, 0.275 µM; in the test on NCI-H226 lung it was 0.0545 µM; with OVCAR-3 ovarian, 0.24 µM. Besides, the GI50 with SF-539 CNS was 0.0938 µM; in the test with SN12C renal, 0.112 µM; in the test on SNB-75 CNS it was 0.148 µM; in the test with UACC-62 melanoma it was 0.00601 µM. Further, the TGI is over 25 µM with ACHN renal; over 25 µM in the test with HOP-62 NSCLC; over 25 µM with IGROV1 ovarian; 6.18 µM with M14 melanoma; 0.461 µM in the test with NCI-H226 lung; 7.23 µM in the test on OVCAR-3 ovarian. The TGI in the test with SF-539 CNS is 1.68 µM; in the test with SN12C renal, over 25 µM; in the test on SNB-75 CNS it was 3.53 µM; with UACC-62 melanoma, 0.0945 µM.
For the molecule `Cc1c2cc[nH]c(=O)c2c(C)c2c1[nH]c1cc(OCCN3CCN(C)CC3)ccc12`, the GI50 was 0.473 µM in the test with ACHN renal; 0.469 µM in the test on HOP-62 NSCLC; 0.799 µM in the test with IGROV1 ovarian; 1.2 µM with M14 melanoma; 0.503 µM with NCI-H226 lung; 1.24 µM in the test with OVCAR-3 ovarian. The GI50 in the test with SF-539 CNS is 1.31 µM; with SN12C renal it was 0.389 µM; with SNB-75 CNS, 1.23 µM; with UACC-62 melanoma it was 1.13 µM. The TGI worked out at 3.83 µM in the test with ACHN renal; 3.24 µM in the test on HOP-62 NSCLC; 7.59 µM in the test with IGROV1 ovarian; 2.94 µM with M14 melanoma; 2.38 µM with NCI-H226 lung; 7.7 µM in the test with OVCAR-3 ovarian. Besides, the TGI in the test on SF-539 CNS turned out to be 2.77 µM; in the test on SN12C renal, 3.31 µM; in the test with SNB-75 CNS, 6.81 µM; with UACC-62 melanoma it was 2.9 µM.
Take `O=C(c1ccccc1)c1c(NCC(O)CN2CCCC2)n(Cc2ccccc2)c(=O)n(Cc2ccccc2)c1=O` (stereo not given): the GI50 in the test with ACHN renal is 22.3 µM; in the test on HOP-62 NSCLC it was 21.7 µM; in the test on IGROV1 ovarian it was 21.6 µM; in the test with M14 melanoma, 17.5 µM; with NCI-H226 lung, 18.6 µM; with OVCAR-3 ovarian, 18.4 µM. Moreover, the GI50 with SF-539 CNS is 19.6 µM; in the test with SN12C renal, 19.3 µM; in the test with SNB-75 CNS, 16.9 µM; in the test with UACC-62 melanoma, 17.4 µM. Moreover, the TGI amounted to 54.7 µM with ACHN renal; 49.5 µM with HOP-62 NSCLC; 52.8 µM in the test on IGROV1 ovarian; 33.9 µM with M14 melanoma; 48.4 µM with NCI-H226 lung; 36.2 µM with OVCAR-3 ovarian. For the same molecule, the TGI with SF-539 CNS was 33.9 µM; with SN12C renal, 39.1 µM; in the test with SNB-75 CNS it was 47.3 µM; in the test with UACC-62 melanoma it was 33.2 µM.
As for `O=[N+]([O-])c1ccc(Nc2ccccc2-c2ccccc2)c2nonc12`, the GI50 in the test on ACHN renal is 20.8 µM; in the test with HOP-62 NSCLC, 17.4 µM; in the test on IGROV1 ovarian it was 12 µM; in the test with M14 melanoma it was 13.3 µM; with NCI-H226 lung it was 14 µM; in the test with OVCAR-3 ovarian, 9.15 µM. Further, the GI50 in the test on SF-539 CNS was 17 µM; in the test with SN12C renal, 12.4 µM; in the test with SNB-75 CNS, 13.6 µM; in the test on UACC-62 melanoma, 4.44 µM. The TGI was 87.5 µM in the test with ACHN renal; 42.7 µM in the test with HOP-62 NSCLC; over 63.6 µM with IGROV1 ovarian; 30.6 µM in the test on M14 melanoma; 40.5 µM in the test with NCI-H226 lung; 22.8 µM in the test with OVCAR-3 ovarian. The concentration for total growth inhibition (TGI) with SF-539 CNS was determined as 39.9 µM; in the test on SN12C renal, 28.2 µM; in the test on SNB-75 CNS, 36.6 µM; in the test on UACC-62 melanoma, 18 µM.

The term TGI denotes the concentration giving total growth inhibition. The GI50 is the concentration giving 50% growth inhibition.
